The results in this text go back to patent US20240299556A1, “Magnolol and Sulforaphane Conjgate, and Preparation Method and Use Thereof” (Shenzhen Zhenxing Biomedicine Research Center Co., Ltd., priority 2019, published 2024).

Assay type in all cases: cell-based
Data set [1] deals with human lung cancer cell line NCI-H460. The experiment in a line: Proliferation of NCI-H460 cells (CCK8 kit). The procedure:
2.1 Cultivation of NCI-H460 Cells. The Cells, when Grow to the Logarithmic Growth phase, were digested with 0.25% trypsin, centrifuged at 1000×g for 5 min, and the cell pellet were re-suspended with 1640 medium containing 10% FBS and inoculated in a 96-well culture plate at a density of 5000 cells/well, and then cultured overnight at 37° C., 5% CO2 and saturated humidity.
2.2 Six duplicate wells were set in each group, and drugs were added to each well according to the following conditions, and then cultured for 24 h.
Control group: The group without drugs.
Magnolol group: Magnolol added at a final concentration of 20 μM.
CT-1 group: CT-1 added at a final concentration of 20 μM.
CT-2 group: CT-2 added at a final concentration of 20 μM.
CT-3 group: CT-3 added at a final concentration of 20 μM.
The above cells were intervened for 24 hours, and then the effects of drugs on tumor cell proliferation were detected by using CCK8 kit. The specific operations are as follows: […] was added to each well and cultured for 2 h, and then the absorbance (OD) value at a wavelength of 450 nm was measured on a microplate reader, and the cell survival rate of the other groups was calculated on the basis of the cell survival rate of the control group as 100%.
In general terms: Tetrazolium dyes change colour on reduction, which living cells bring about.

The test system of data set [2] is seven human cancer cell lines. The data set can be described thus: Proliferation of seven human cancer cell lines (CCK8 kit), summary over the panel. How it is done:
(§1) Human glioma cell line U251, human lung cancer cell line H1650, human liver cancer cell line HepG2, human breast cancer cell line MDA-MB-231, human gastric cancer cell line AGS, human colon cancer cell line LOVO, human ovarian cancer cell line OVCAR3. 2.1 Cultivation of the above 7 kinds of cancer cells. The cells, when grow to the logarithmic growth phase, were digested with 0.25% trypsin, centrifuged at 1000×g for 5 min, and the cell pellet were re-suspended with 1640 medium containing 10% FBS and inoculated in a 96-well culture plate at a density of 5000 cells/well, and then cultured overnight at 37° C., 5% CO2 and saturated humidity. 2.2 Each group was set up with 6 duplicate wells, and drugs were added to each well according to the following conditions, and then cultured for 24 h. Positive control groups: […] Sulforaphane added at a final concentration of 5.0 μM; • Positive control group 5: Sulforaphane added at a final concentration of 10.0 μM; • Positive control group 6: Sulforaphane added at a final concentration of 20.0 μM. CT-3 groups: Divided into 3 groups: • CT-3 group 1: CT-3 added at a final concentration of 5.0 μM; • CT-3 group 2: CT-3 added at a final concentration of 10.0 μM; • CT-3 group 3: CT-3 added at a final concentration of 20.0 μM. The above cells were intervened for 24 hours, and then the effects of drugs on tumor cell proliferation were detected by using CCK8 kit.

The subject of data set [3] is human gastric cancer cell line AGS. The experiment in a line: Proliferation of AGS cells (CCK8 kit). The note with it: 24 h. The procedure: as §1
Data set [4] has as its system human liver cancer cell line HepG2. The experiment in a line: Proliferation of HepG2 cells (CCK8 kit). The note with it: HepG2, 24 h. The procedure: as §1
Data set [5] has as its system human lung cancer cell line NCI-H460. The experiment in a line: Apoptosis of NCI-H460 cells (apoptosis detection kit, flow cytometry). Conditions: NCI-H460, 10.0 μM, 24 h. How it is done:
(§2) The cells, when grow to the logarithmic growth phase, were digested with 0.25% trypsin, centrifuged at 1000×g for 5 min, and the cell pellet were re-suspended with 1640 medium containing 10% FBS and inoculated in a 96-well culture plate at a density of 3.0×10^5 cells/well, and then cultured overnight at 37° C., 5% CO2 and saturated humidity. 2.2 Each group was set up with 3 duplicate wells, and drugs were added to each well according to the following conditions, and then cultured for 24 h. […] Sulforaphane added at a final concentration of 10.0 μM. CT-3 group: CT-3 added at a final concentration of 10.0 μM. The above cells were intervened for 24 hours, and then the effect of CT-3 on tumor cell apoptosis was determined by apoptosis detection kit and flow cytometry.
A general note: In flow cytometry, cells or beads pass a laser one at a time.

In data set [6] the test system is human lung cancer cell line H1650. The data set can be described thus: Proliferation of H1650 cells (CCK8 kit). The procedure: as §1
For data set [7], the system named is human colon cancer cell line SW480. The data set can be described thus: Apoptosis of SW480 cells (apoptosis detection kit, flow cytometry). The note with it: SW480, 10.0 μM, 24 h. How it is done: as §2, with “in a 6-well culture plate” for “in a 96-well culture plate”, “group: CT-3 was added at” for “group: CT-3 added at”
Data set [8] relates to human colon cancer cell line LOVO. The experiment in a line: Proliferation of LOVO cells (CCK8 kit). The note with it: 24 h. The procedure:
as §1

Data set [9] relates to human glioma cell line U251. The experiment in a line: Proliferation of U251 cells (CCK8 kit). The procedure: as §1
Data set [10] deals with human hepatic normal cell line LO2. The data set can be described thus: Apoptosis of normal LO2 cells (apoptosis detection kit, flow cytometry). The note with it: 24 h.
In data set [11] the test system is human breast cancer cell line MDA-MB-231. The experiment in a line: Proliferation of MDA-MB-231 cells (CCK8 kit). Conditions: MDA-MB-231, 24 h. How it is done: as §1
Data set [12] concerns human ovarian cancer cell line OVCAR3. The data set can be described thus: Proliferation of OVCAR3 cells (CCK8 kit). The procedure: as §1
Where [13] appears, read: NCI-H460, 20 μM, 24 h, CCK8, read-out: Inhibition Rate (%).
Where [14] appears, read: U251, H1650, HepG2, MDA-MB-231, AGS, LOVO, OVCAR3, 24 h, CCK8, read-out: IC50 against 7 kinds of human cancer cells (range over the panel).
The mark [15] stands for this setting: CCK8, read-out: Half maximal inhibitory concentration (IC50).
Where [16] appears, read: NCI-H1650, H1650, 24 h, CCK8, read-out: Half maximal inhibitory concentration (IC50).
Setting [17] is: LOVO, CCK8, read-out: Half maximal inhibitory concentration (IC50).
Where [18] appears, read: U-251, U251, 24 h, CCK8, read-out: Half maximal inhibitory concentration (IC50).
The mark [19] stands for this setting: OVCAR-3, OVCAR3, 24 h, CCK8, read-out: Half maximal inhibitory concentration (IC50).
[20] abbreviates: read-out: Half maximal inhibitory concentration (IC50).

Read-outs that look alike come from different tables or passages of the source.

Take `C=CCc1ccc(O)c(-c2cc(CC=C)ccc2OCCSCCCCN=C=S)c1` [CT-1]: the inhibition (usually the drop in the measured response relative to a control, in per cent) at 20 µM in data set [1] (setting [13]) is 18.4%.

With `C[S+]([O-])CCCCN=C=S` (stereo not shown) [Sulforaphane], the IC50 is 18.4 to 22.5 µM in data set [2] (setting [14]); 18.1 µM in data set [3] (setting [15]); 21 µM in [4] (setting [15]); 22 µM in [6] (setting [16]); 18.5 µM in data set [8] (setting [17]); 22.5 µM in [9] (setting [18]). Besides, the figures for the IC50 in data set [11] (setting [15]) and in data set [12] (setting [19]) were 22.2 µM and 18.4 µM, respectively. The “Apoptosis Rate (%)” value was 18.90% in data set [5]; 19.99% in [7]; 6.52% in data set [10] (human, 10 μM).

For `C=CCc1ccc(O)c(-c2cc(CC=C)ccc2OCC[S+]([O-])CCCCN=C=S)c1` (stereo not shown) [CT-3], the IC50 was 5.1 to 8.02 µM in [2] (setting [14]); 8.02 µM in data set [3] (setting [15]); 6.24 µM in [4] (setting [15]); 6.92 µM in data set [6] (setting [16]); 5.1 µM in [8] (setting [17]); 7.75 µM in data set [9] (setting [18]). Moreover, the IC50 amounted to 7.48 µM in [11] (setting [15]) and 5.34 µM in [12] (setting [19]). Also, the “Apoptosis Rate (%)” value in [5] is on record as 73.82%; in data set [7], 61.87%; in data set [10] (human, 10 μM), 6.48%. The inhibition at 20 µM in data set [1] (setting [13]) was 99%.

In the case of `C=CCc1ccc(O)c(-c2cc(CC=C)ccc2OCCS(=O)(=O)CCCCN=C=S)c1` [CT-2], the inhibition at 20 µM in data set [1] (setting [13]) stood at 70.3%.

For `C=CCc1ccc(O)c(-c2cc(CC=C)ccc2O)c1` [Magnolol], the IC50 in data set [2] (24 h, read-out: IC50 against 7 kinds of human cancer cells (range over the panel)) is over 45 µM; in data set [3] (setting [20]) it was over 45 µM; in data set [4] (setting [20]), over 45 µM; in data set [6] (NCI-H1650, 24 h, read-out: Half maximal inhibitory concentration (IC50)) it was over 45 µM; in data set [8] (LoVo, read-out: Half maximal inhibitory concentration (IC50)) it was over 45 µM; in data set [9] (U-251, 24 h, read-out: Half maximal inhibitory concentration (IC50)), over 45 µM. Also, the IC50 in [11] (setting [20]) is over 45 µM; in [12] (OVCAR-3, 24 h, read-out: Half maximal inhibitory concentration (IC50)) it was over 45 µM. Further, the “Apoptosis Rate (%)” value in [5] is recorded as 3.12%; in [7], 4.02%; in data set [10] (normal LO2 cells, 10.0 μM, flow cytometry) it was 4.71%. Also, in data set [1] (NCI-H460, 24 h, read-out: Inhibition Rate (%)), the inhibition at 20 µM was found to be 1.2%.
